{
  "source": "patent US20130045500A1",
  "about": "“CELL EVALUATION METHOD” (NATIONAL CANCER CENTER, priority 2011, published 2013)",
  "system": "human breast-cancer-derived cell line T47D",
  "test": "Survival rate by ATP assay (CellTiter-Glo) and number of spheroids on NanoCulture plate",
  "type": "cell-based",
  "conditions": "trastuzumab 10 μg/mL, paclitaxel 6.0 μg/mL, 7 days after medicine was added, expected effects confirmed in b72 (FIG. 8, FIG. 9)",
  "protocol": "A human breast-cancer-derived cell line T47D was suspended in a culture medium (NCM-M made by SCIVAX Co., Ltd.), and seeded on a NanoCulture (registered mark) plate (made by SCIVAX Co., Ltd., 96-well plate, material of concavo-convex structure surface: cyclic-olefin polymer (COP), planar shape of concavo-convex structure: regular hexagon, width between unit structures (line width): 700 nm, minimum internal diameter of unit structure: 3 μm, and depth: 1 μm) at 1×10^4 cells/well, and incubated at 37° C. and 5% CO2.\nThe survival rate of the cell on the tenth day (the seventh day after medicines were added) was evaluated based on the assay of the ATP in the cell using CellTiter-Glo Luminescent Cell Viability Assay (Promega KK.) and calculated as a relative value, and the results are shown in FIG. 8.",
  "data": [
    {"smiles": "CC(=O)O[C@H]1C(=O)[C@@]2(C)[C@H]([C@H](OC(=O)c3ccccc3)[C@]3(O)C[C@H](OC(=O)[C@H](O)[C@@H](NC(=O)c4ccccc4)c4ccccc4)C(C)=C1C3(C)C)[C@]1(OC(C)=O)CO[C@@H]1C[C@@H]2O", "note": "[paclitaxel]", "values": [
      {"measurement": "antitumor effect (ATP amount in the cell and number of spheroids)", "value": "shows an antitumor effect"}
    ]}
  ]
}
